# In patent publication US8445468B2, “(20S,22E)-2-methylene-19-nor-22-ene-1α,25-dihydroxyvitamin D3” (Wisconsin Alumni Research Foundation, priority 2009, dated 2013):
# pEC50, pKi: −log10 of the molar value. Where two headings read alike, the source gives them in different places.
# Key:
# [1] = target: T1, full-length recombinant rat vitamin D receptor (Rattus norvegicus, UniProt P13053); test: Vitamin D receptor binding, competition with [3H]-1,25(OH)2D3; settings: FIG. 1
# T1 construct: Full-length recombinant rat receptor was expressed in E. coli BL21 (DE3) Codon Plus RIL cells; histidine tag (C); made in house; host or cells: E. coli BL21 (DE3) Codon Plus RIL
# T1 sequence (P13053 1-423): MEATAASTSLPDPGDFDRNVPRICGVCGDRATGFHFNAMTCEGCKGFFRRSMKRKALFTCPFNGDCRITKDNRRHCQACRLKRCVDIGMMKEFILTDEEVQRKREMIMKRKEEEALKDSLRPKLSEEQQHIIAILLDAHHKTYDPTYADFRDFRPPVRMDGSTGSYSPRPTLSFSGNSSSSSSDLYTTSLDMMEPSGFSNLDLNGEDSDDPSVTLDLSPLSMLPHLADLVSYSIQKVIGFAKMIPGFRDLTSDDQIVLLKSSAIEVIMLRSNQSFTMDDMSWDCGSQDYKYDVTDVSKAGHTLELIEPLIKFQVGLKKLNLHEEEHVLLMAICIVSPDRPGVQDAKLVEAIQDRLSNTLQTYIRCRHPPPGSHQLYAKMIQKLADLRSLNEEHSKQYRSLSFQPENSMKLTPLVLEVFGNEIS
# Method: Full-length recombinant rat receptor was expressed in E. coli BL21 (DE3) Codon Plus RIL cells and purified to homogeneity using two different column chromatography systems. The first system was a nickel affinity resin that utilizes the C-terminal histidine tag on this protein. The protein that was eluted from this resin was further purified using ion exchange chromatography (S-Sepharose Fast Flow). Aliquots of the purified protein were quick frozen in liquid nitrogen and stored at −80° C. until use. For use in binding assays, the protein was diluted in TEDK50 (50 mM Tris, 1.5 mM EDTA, pH7.4, 5 mM DTT, 150 mM KCl) with 0.1% Chaps detergent. The receptor protein and ligand concentration were optimized such that no more than 20% of the added radiolabeled ligand was bound to the receptor.
# Radiolabeled and unlabeled ligands were added to 100 mcl of the diluted protein at a final ethanol concentration of ≦10%, mixed and incubated overnight on ice to reach binding equilibrium. The following day, 100 mcl of hydroxylapatite slurry (50%) was added to each tube and mixed at 10-minute intervals for 30 minutes. […] Total binding was determined from the tubes containing only radiolabeled ligand.
# HL-60 cells = test: HL-60 differentiation (nitro blue tetrazolium reduction); type: cell-based, human; settings: FIG. 2; for pEC50: differentiation of HL-60 cells into monocytes, read-out: EC50, HL-60 cell differentiation
# Method: The study drugs were dissolved in ethanol and the concentrations determined using UV spectrophotometry. Serial dilutions were prepared so that a range of drug concentrations could be tested without changing the final concentration of ethanol (≦0.2%) present in the cell cultures.
# Human promyelocytic leukemia (HL60) cells were grown in RPMI-1640 medium containing 10% fetal bovine serum. The cells were incubated at 37° C. in the presence of 5% CO2.
# HL60 cells were plated at 1.2×10^5 cells/ml. Eighteen hours after plating, cells in duplicate were treated with drug. Four days later, the cells were harvested and a nitro blue tetrazolium reduction assay was performed (Collins et al., 1979; J. Exp. Med. 149:969-974). The percentage of differentiated cells was determined by counting a total of 200 cells and recording the number that contained intracellular black-blue formazan deposits. Verification of differentiation to monocytic cells was determined by measuring phagocytic activity (data not shown).
# [2] = test system: 24-hydroxylase (24Ohase) gene promoter; test: In vitro transcription assay, luciferase reporter in ROS 17/2.8 (bone) cells; type: cell-based; settings: FIG. 3; for pEC50: ROS 17/2.8 cells, 16 h after dosing, read-out: EC50, transcriptional activity in bone cells (24-hydroxylase gene)
# Method: Transcription activity was measured in ROS 17/2.8 (bone) cells that were stably transfected with a 24-hydroxylase (24Ohase) gene promoter upstream of a luciferase reporter gene (Arbour et al., 1998). Cells were given a range of doses. Sixteen hours after dosing the cells were harvested and luciferase activities were measured using a luminometer.
# RLU=relative luciferase units.
# vitamin D-deficient rats [3] = test: Bone calcium mobilization (serum calcium); type: in vivo, rat; settings: FIG. 4; for serum calcium (bone calcium mobilization): 260 pmol/day ip for 4 consecutive days, rats on low calcium diet (0.02%); for bone calcium mobilization activity (in words): vitamin D-deficient rats, low calcium diet
# Method: (§1) Male, weanling Sprague-Dawley rats were placed on Diet 11 (0.47% Ca) diet +AEK oil for one week followed by Diet 11 (0.02% Ca)+AEK oil for 3 weeks. The rats were then switched to a diet containing 0.47% Ca for one week followed by two weeks on a diet containing 0.02% Ca. Dose administration began during the last week on 0.02% calcium diet. Four consecutive ip doses were given approximately 24 hours apart. Twenty-four hours after the last dose, blood was collected from the severed neck and the concentration of serum calcium determined as a measure of bone calcium mobilization. The first 10 cm of the intestine was also collected for intestinal calcium transport analysis using the everted gut sac method.
# vitamin D-deficient rats [4] = test: Intestinal calcium transport (everted gut sac method); type: in vivo, rat; settings: FIG. 5
# Method: as §1
"affinity to the nuclear vitamin D receptor compared to 1,25-(OH)2D3 (in words) ([1]; full length recombinant rat VDR)","pKi ([1]; full-length recombinant rat vitamin D receptor, read-out: Ki, competition with [3H]-1,25(OH)2D3 for binding to VDR)",pEC50 (HL-60 cells; Homo sapiens),SMILES,"potency on HL-60 cell differentiation relative to 1,25(OH)2D3 (HL-60 cells; fold more potent than 1,25(OH)2D3)",pEC50 [2],"potency in increasing transcription of the 24-hydroxylase gene relative to 1,25(OH)2D3 ([2]; bone cells, fold more potent than 1,25(OH)2D3)",serum calcium (bone calcium mobilization) (vitamin D-deficient rats [3]) [mg/dL],bone calcium mobilization activity (in words) (vitamin D-deficient rats [3]),"intestinal calcium transport activity compared to 1,25(OH)2D3 (vitamin D-deficient rats [4]; 32 pmol/day for 4 consecutive days)","intestinal calcium transport, dose dependence (in words) (vitamin D-deficient rats [4]; vitamin D-deficient rats)",pEC50 (HL-60 cells)
same affinity,10.22,10.00,"C=C1[C@H](O)CC(=C/C=C2\CCC[C@]3(C)[C@@H]([C@@H](C)/C=C/CC(C)(C)O)CC[C@@H]23)C[C@H]1O [Compound N-23, (20S,22E)-2-Methylene-19-nor-22-ene-1α,25-dihydroxyvitamin D3]",about 10 times,10.70,about 10 times,6.8,slightly more bone calcium mobilization activity,less activity,dose dependent manner,
,,,"C=C1/C(=C\C=C2/CCC[C@]3(C)[C@@H]([C@H](C)CCCC(C)(C)O)CC[C@@H]23)C[C@@H](O)C[C@@H]1O [1,25(OH)2D3, 1α,25-dihydroxyvitamin D3]",,9.70,,6.1,increased serum calcium levels at all dosages,,,8.70
